In patent US11733243B2, “Use of acamprosate to modulate ERK1/2 activation in animal models for FXS and ASD and individuals diagnosed with FXS and ASD” (Indiana University Research and Technology Corporation, priority 2013, dated 2023):
“Also recorded” adds a separate entry of the source.

Tests used:
[1] = test system: cerebellar granule cells from fmr1 knockout mice; settings: cited from earlier work
[2] = test system: persons with FXS and comorbid ASD; settings: 6 persons; cited from earlier work
[3] = test system: males with FXS; settings: cited from earlier work
[4] = test system: adults with FXS; settings: single dose, cited from earlier work
[5] = test system: fmr1 knockout mice; settings: mouse, in vivo; cited from earlier work
[6] = test system: subjects with FXS; settings: cited from earlier work
[7] = molecular target: T1, mGluR5 (Mus musculus, UniProt Q3UVX5); settings: in vivo; cited from earlier work
T1 construct: host or cells: fmr1 knockout mouse, in vivo

[8] = test system: fmr1 KO mice; settings: mouse, in vivo; cited from earlier work
[9] = test system: ERK/MAPK; assay: ICC of fixed lymphocytes for ERK/MAPK activity (anti-phospho-Thr202/Tyr204); format: cell-based, human; settings: tamoxifen, 10 mM
Protocol: Lymphocyte samples were prepared from patient's blood and plated onto a PDL-coated 24-well plate. Cells were fixed by adding 4% paraformaldehyde in PB solution (at RT). Excess paraformaldehyde solution was aspirate out. The fixed cells were washed three times gently with cold DPBS (Bulbecco-modified phosphate buffered saline). Then 0.12% Triton X-100 (diluted in DPBS) was added onto the cells at RT and incubated for 20 minutes at RT. Excess Triton X solution was aspirated out and cells were washed three times (gently) with chilled DPBS. Cells were blocked with 10% horse serum (HS) (diluted in DPBS) for 20 minutes at RT. Unbound blocking agent was washed off. The primary antibody diluted in 1% HS in DPBS was added. Generally a dilution of 1:250 was used. The antibody, which is raised in rabbit recognizes Phospho-Thr202/Tyr204 of ERK/MAPK, which indicates translocation of activated ERK/MAPK into the […] compartment.
Incubation with the primary antibody was done for overnight at 4° C. Unbound primary antibody was washed off, and at this stage the plate can be stored at 4° C. Washed three times at RT with cold DPBS. Added Alexa Fluor conjugated goat anti rabbit (diluted 1:200 in DPBS) and incubated at RT for 1-2 hr. This reagent and this step is light sensitive to. For best results the reagent and this step of the procedure should be kept away from the light. […]

[10] = test system: ERK1/2; settings: adults with FXS; cited from earlier work
[11] = test system: alcohol intake; settings: mouse, in vivo; cited from earlier work
[12] = test system: alcohol withdrawal associated anxiety; settings: in vivo; cited from earlier work

T1 sequence (Q3UVX5 19-1203): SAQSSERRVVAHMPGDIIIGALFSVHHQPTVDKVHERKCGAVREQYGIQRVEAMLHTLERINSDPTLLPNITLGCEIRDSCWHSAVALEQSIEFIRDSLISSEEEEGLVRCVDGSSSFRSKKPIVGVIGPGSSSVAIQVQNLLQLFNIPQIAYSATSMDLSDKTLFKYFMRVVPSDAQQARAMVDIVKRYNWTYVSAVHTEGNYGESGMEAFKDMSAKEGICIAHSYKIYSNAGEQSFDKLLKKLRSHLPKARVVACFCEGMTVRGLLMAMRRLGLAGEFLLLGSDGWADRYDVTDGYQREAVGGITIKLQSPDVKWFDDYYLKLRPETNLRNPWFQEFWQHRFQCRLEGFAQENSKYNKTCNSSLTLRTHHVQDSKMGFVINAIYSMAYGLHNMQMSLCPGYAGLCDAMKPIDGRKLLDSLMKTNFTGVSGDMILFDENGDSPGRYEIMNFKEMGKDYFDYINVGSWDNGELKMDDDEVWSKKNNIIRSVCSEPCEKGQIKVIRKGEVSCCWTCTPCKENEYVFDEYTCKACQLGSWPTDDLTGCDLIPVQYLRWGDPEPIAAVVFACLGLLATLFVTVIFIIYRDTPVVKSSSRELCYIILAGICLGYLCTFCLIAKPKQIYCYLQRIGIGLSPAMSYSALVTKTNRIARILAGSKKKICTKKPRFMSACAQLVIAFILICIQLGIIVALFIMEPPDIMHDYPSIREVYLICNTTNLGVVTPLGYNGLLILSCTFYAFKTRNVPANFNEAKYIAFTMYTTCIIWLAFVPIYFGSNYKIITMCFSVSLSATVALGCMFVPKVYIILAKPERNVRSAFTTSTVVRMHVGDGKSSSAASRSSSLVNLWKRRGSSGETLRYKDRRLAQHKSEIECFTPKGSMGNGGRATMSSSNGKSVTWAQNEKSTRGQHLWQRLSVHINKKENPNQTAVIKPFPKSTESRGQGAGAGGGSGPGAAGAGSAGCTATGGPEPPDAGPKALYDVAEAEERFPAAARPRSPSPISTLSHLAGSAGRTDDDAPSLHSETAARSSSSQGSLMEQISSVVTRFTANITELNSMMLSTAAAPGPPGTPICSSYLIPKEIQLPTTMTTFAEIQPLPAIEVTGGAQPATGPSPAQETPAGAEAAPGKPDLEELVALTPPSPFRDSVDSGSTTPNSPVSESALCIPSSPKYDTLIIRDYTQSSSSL

In the case of CC12CC3CC(C)(C1)CC(N)(C3)C2 [memantine], the “dendritic spine development and synapse formation” value [1] is listed as “correction of dendritic spine development and synapse formation”, the “subjects who developed treatment limiting irritability” value [2] is listed as “Two” and the “subjects with clinical response (CGI-I very much improved or much improved)” value [2] is listed as 67%.

For COC(=O)N1CC[C@@H]2[C@H]1CCC[C@@]2(O)C#Cc1cccc(C)c1 [AFQ056], the group treatment effect ([3]; 30 males with FXS aged 18 to 35 years) is listed as “not associated with significant group treatment effect” and the “response in 7 subject subset with full fmr1 gene methylation” value ([3]; ABC subscales and total, CGI-I, Visual Analogue Scale, Repetitive Behavior Scale-Revised) is listed as “significant response to AFQ056 compared to placebo”.

For CN1CC(=O)NC1=NC(=O)Nc1cccc(Cl)c1 [fenobam], the “subjects experiencing mild sedation” value ([4]; 12 adults with FXS) is given as 25%, the “subjects who experienced clinical benefit” value ([4]; 12 adults with FXS, reductions in hyperactivity and anxiety) is given as 75% and the pharmacokinetics [4] is given as “variable pharmacokinetics”. For the same molecule, the tolerability [4] was “good tolerability”.

In the case of NC[C@H](CC(=O)O)c1ccc(Cl)cc1 (single isomer, unassigned) [STX209], the “effect on protein synthesis and dendritic spines” value [5] is listed as “correction of aberrant protein synthesis and dendritic spine abnormalities”, the “ABC Irritability (ABC-I) subscale, primary outcome measure” value ([6]; 63 subjects aged 6 to 40 years) is listed as “not associated with improvement on the primary outcome measure” and the “ABC-SW and VABS Socialization, post-hoc 27 subject subset with baseline ABC-SW >8” value ([6]; human, in vivo) is listed as “significant STX209-associated improvement”. The “Social Avoidance scale (ABC-SA), post-hoc analysis” value ([6]; human, in vivo) was “significant group-wide improvement”, the subjects reporting sedation ([6]; human, in vivo) was 8% and the tolerability ([6]; human, in vivo) was “well tolerated”.

For Cc1cccc(C#Cc2ccccc2)n1 [MPEP, 2-methyl-6-(phenylethynyl)-pyridine], the “effect on phenotypic characteristics of the fmr1 mouse model” value [7] is given as “reverse phenotypic characteristics, including audiogenic seizures, altered pre-pulse inhibition (PPI), and open field hyperactivity”.

In the case of NCCS(=O)(=O)O [taurine], the “effect on phenotype of fmr1 KO mice” value [8] is given as “Improvements in memory acquisition and retention”.

For CC/C(=C(\c1ccccc1)c1ccc(OCCN(C)C)cc1)c1ccccc1 [Tamoxifen], the “ERK activation and translocation of ERK/MAPK (positive control)” value [9] was “induces ERK activation; also recorded: cytoplasmic localization of ERK 1/2”.

In the case of Nc1nc2ccc(OC(F)(F)F)cc2s1 [riluzole], the ERK1/2 activation rates [10] is given as “modifies ERK1/2 activation rates”.

For Cc1nc(C#Cc2cccnc2)cs1 [MTEP, 3-((2-Methyl-4-thiazolyl)ethynyl)pyridine], the alcohol intake [11] is listed as “reduced alcohol intake” and the “alcohol withdrawal associated anxiety effects” value [12] is listed as “reduce alcohol withdrawal associated anxiety effects”.

For CC(=O)[C@H]1CC[C@H]2[C@@H]3CC[C@H]4C[C@H](O)CC[C@]4(C)[C@H]3C(=O)C[C@]12C [alphaxalone], the “effect on phenotype of fmr1 KO mice” value [8] is listed as “reductions in anxiety and rescue of audiogenic seizures”.

In the case of Oc1noc2c1CCNC2 [gaboxadol], the “effect on phenotype of fmr1 KO mice” value [8] is given as “restored neuron excitability deficits in the amygdala, reduced hyperactivity, and reduced PPI deficits”.
